Experimental data from US20210038607A1, “OXADIAZOLYLTHIOPHENE DERIVATIVES USEFUL AS HISTONE DEACETYLASE INHIBITORS” (Karus Therapeutics Limited, priority 2018, published 2021).

Columns and labels:
[1] = molecular target: T1, Human HDAC7 (Homo sapiens, UniProt Q8WUI4); experiment: HDAC7 biochemical assay, class IIa-specific substrate; conditions: read-out: HDAC Isoform IC50 (nM) 7
T1 construct: (a.a. 518-end) with N-terminal GST tag; GST (N); host or cells: baculovirus expression system
T1 sequence (Q8WUI4 518-952 limits assumed): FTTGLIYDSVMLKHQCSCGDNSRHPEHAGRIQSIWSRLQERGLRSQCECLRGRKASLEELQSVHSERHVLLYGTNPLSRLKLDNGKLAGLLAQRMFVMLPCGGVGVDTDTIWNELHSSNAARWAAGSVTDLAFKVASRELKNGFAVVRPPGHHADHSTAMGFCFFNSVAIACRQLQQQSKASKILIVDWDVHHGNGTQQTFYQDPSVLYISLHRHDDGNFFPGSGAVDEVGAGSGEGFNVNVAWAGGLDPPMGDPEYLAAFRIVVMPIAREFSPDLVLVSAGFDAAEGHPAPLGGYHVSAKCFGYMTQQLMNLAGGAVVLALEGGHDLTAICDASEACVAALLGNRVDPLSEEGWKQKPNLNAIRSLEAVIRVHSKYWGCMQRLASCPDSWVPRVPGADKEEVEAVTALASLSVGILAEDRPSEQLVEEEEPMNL
How it was run: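 GST-tagged HDAC7 (a.a. 518-end, baculovirus-expressed) at 0.001 ng/ul with 50 μM Boc-Lys(trifluoroacetyl)-AMC substrate, 30 min at room temperature in pH 8.0 Tris buffer with BSA, 1% DMSO final. Developer then releases AMC; fluorescence read at 360/460 nm.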

[2] = molecular target: T2, Human HDAC5 (Homo sapiens, UniProt Q9UQL6); experiment: HDAC5 biochemical assay, class IIa-specific substrate; conditions: read-out: HDAC Isoform IC50 (nM) 5
T2 construct: full length with C-terminal His tag, MW=51.1 kDa; His (C); host or cells: baculovirus expression system
How it was run: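 Full-length C-terminal His-tagged HDAC5 from baculovirus (0.05 ng/ul) incubated 30 min at room temperature with 50 μM Boc-Lys(trifluoroacetyl)-AMC and compound, Tris pH 8.0 buffer with BSA, 1% DMSO. Developer then releases AMC; fluorescence 360/460 nm.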

[3] = molecular target: T3, Recombinant human HDAC6 (Homo sapiens, UniProt Q9UBN7); experiment: HDAC6 biochemical assay, AMC-labeled peptide substrate; conditions: HDAC6; read-out: HDAC Isoform IC50 (nM) 6
T3 construct: full length, MW=159 kDa; GST (N); host or cells: Sf9 insect cells (baculovirus)
T3 sequence (Q9UBN7 1-1215): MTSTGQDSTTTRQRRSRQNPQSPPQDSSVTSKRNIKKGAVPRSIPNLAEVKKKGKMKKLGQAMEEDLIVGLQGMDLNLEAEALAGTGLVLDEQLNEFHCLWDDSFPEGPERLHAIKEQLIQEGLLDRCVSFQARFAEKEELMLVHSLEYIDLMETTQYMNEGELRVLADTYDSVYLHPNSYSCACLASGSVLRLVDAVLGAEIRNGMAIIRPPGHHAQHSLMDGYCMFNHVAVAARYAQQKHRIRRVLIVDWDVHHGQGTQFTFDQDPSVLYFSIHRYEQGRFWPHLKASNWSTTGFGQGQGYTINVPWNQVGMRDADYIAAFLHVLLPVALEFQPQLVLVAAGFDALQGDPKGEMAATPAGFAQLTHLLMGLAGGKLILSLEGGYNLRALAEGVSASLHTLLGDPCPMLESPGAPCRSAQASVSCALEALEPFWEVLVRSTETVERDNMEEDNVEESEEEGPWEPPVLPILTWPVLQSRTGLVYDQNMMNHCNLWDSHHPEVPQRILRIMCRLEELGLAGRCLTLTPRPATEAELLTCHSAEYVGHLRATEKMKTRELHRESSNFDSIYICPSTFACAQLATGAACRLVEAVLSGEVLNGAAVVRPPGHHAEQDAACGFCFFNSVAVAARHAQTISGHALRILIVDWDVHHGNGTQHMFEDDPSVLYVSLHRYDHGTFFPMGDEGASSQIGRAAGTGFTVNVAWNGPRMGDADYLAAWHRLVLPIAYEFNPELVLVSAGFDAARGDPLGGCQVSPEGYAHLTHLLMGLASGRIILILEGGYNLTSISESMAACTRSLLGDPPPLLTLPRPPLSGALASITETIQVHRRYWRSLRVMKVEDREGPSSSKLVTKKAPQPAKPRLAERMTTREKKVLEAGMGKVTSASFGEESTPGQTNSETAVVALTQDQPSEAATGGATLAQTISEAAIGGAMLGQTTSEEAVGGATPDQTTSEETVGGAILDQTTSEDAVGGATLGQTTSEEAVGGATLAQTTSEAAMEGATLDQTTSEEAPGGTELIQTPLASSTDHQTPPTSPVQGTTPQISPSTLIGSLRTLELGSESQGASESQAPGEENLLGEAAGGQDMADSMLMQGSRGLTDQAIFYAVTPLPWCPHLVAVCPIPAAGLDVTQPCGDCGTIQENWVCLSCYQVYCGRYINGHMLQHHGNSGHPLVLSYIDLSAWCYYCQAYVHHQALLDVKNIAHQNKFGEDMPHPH
How it was run: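 Two-step fluorogenic read-out: enzyme deacetylates 50 μM RHKK(Ac)AMC for 1 h at 30° C in pH 8.0 Tris buffer with BSA and 1% DMSO, then developer cleavage gives signal at Ex 360/Em 460. Enzyme: 0.3 ng/ul recombinant full-length human HDAC6, GST-tagged, Sf9-expressed.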

Measured: IC50

T2 sequence (Q9UQL6 656-1122 limits assumed): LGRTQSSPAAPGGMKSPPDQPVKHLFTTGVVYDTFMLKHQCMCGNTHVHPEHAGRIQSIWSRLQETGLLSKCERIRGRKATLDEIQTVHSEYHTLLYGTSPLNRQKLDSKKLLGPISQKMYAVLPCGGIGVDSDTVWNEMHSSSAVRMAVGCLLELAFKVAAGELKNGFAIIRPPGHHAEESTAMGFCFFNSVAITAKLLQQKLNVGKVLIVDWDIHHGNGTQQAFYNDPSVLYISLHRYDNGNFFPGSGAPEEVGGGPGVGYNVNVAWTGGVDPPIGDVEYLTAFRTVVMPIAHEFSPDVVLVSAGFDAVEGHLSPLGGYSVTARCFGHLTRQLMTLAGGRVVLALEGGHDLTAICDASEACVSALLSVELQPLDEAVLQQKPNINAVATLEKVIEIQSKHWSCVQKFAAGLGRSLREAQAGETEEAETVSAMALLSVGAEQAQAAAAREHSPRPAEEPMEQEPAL

O=C(c1ccc(N(Cc2ccc(-c3noc(C(F)(F)F)n3)s2)c2cnccn2)nn1)N1CC[S+]([O-])CC1 [Example FD, 4-{6-[(Pyrazin-2-yl)({5-[5-(trifluoromethyl)-1,2,4-oxadiazol-3-yl]thiophen-2-yl}methyl)amino]pyridazine-3-carbonyl}-1lambda4-thiomorpholin-1-one]
≤ 500 nM: all assays above

O=C(c1ccc(N(Cc2ccc(-c3noc(C(F)(F)F)n3)s2)c2cnccn2)nn1)N1C[C@@H]2C[C@H]1CO2 [Example FE, 6-[(1S,4S)-2-Oxa-5-azabicyclo[2.2.1]heptane-5-carbonyl]-N-(pyrazin-2-yl)-N-({5-[5-(trifluoromethyl)-1,2,4-oxadiazol-3-yl]thiophen-2-yl}methyl)pyridazin-3-amine]
≤ 500 nM: all assays above

O=C(c1ccc(N(Cc2ccc(-c3noc(C(F)(F)F)n3)s2)c2cnccn2)nn1)N1CCC1 [Example FF, 6-(Azetidine-1-carbonyl)-N-(pyrazin-2-yl)-N-({5-[5-(trifluoromethyl)-1,2,4-oxadiazol-3-yl]thiophen-2-yl}methyl)pyridazin-3-amine]
≤ 500 nM: all assays above

O=C(c1ccc(N(Cc2ccc(-c3noc(C(F)(F)F)n3)s2)c2cnccn2)nn1)N1CCCCC1 [Example FG, 6-(Piperidine-1-carbonyl)-N-(pyrazin-2-yl)-N-({5-[5-(trifluoromethyl)-1,2,4-oxadiazol-3-yl]thiophen-2-yl}methyl)pyridazin-3-amine]
≤ 500 nM: all assays above

O=C(c1ccc(N(Cc2ccc(-c3noc(C(F)(F)F)n3)s2)c2cnccn2)nn1)N1CCC12COC2 [Example FH, 6-{6-Oxa-1-azaspiro[3.3]heptane-1-carbonyl}-N-(pyrazin-2-yl)-N-({5-[5-(trifluoromethyl)-1,2,4-oxadiazol-3-yl]thiophen-2-yl}methyl)pyridazin-3-amine]
≤ 500 nM: all assays above

O=C(c1ccc(N(Cc2ccc(-c3noc(C(F)(F)F)n3)s2)c2cnccn2)nn1)N1CCCC1 [Example FI, N-(Pyrazin-2-yl)-6-(pyrrolidine-1-carbonyl)-N-({5-[5-(trifluoromethyl)-1,2,4-oxadiazol-3-yl]thiophen-2-yl}methyl)pyridazin-3-amine]
≤ 500 nM: all assays above

O=C(c1ccc(N(Cc2ccc(-c3noc(C(F)(F)F)n3)s2)c2cnccn2)nn1)N1CCC2(COC2)C1 [Example FJ, 6-{2-Oxa-6-azaspiro[3.4]octane-6-carbonyl}-N-(pyrazin-2-yl)-N-({5-[5-(trifluoromethyl)-1,2,4-oxadiazol-3-yl]thiophen-2-yl}methyl)pyridazin-3-amine]
≤ 500 nM: all assays above

O=C(c1ccc(N(Cc2ccc(-c3noc(C(F)(F)F)n3)s2)c2cnccn2)nn1)N1CC(O)(C(F)(F)F)C1 [Example FK, 1-{6-[(Pyrazin-2-yl)({5-[5-(trifluoromethyl)-1,2,4-oxadiazol-3-yl]thiophen-2-yl}methyl)amino]pyridazine-3-carbonyl}-3-(trifluoromethyl)azetidin-3-ol]
≤ 500 nM: all assays above

Nc1cnnc(N(Cc2ccc(-c3noc(C(F)(F)F)n3)s2)c2cnccn2)c1 [Example FL, N3-(Pyrazin-2-yl)-N3-({5-[5-(trifluoromethyl)-1,2,4-oxadiazol-3-yl]thiophen-2-yl}methyl)pyridazine-3,5-diamine]
≤ 500 nM: all assays above
